Laboratory results published in US6365360B1, “Methods of identifying modulators of human IP prostaglandin receptor” (Merck Frosst Canada & Co., priority 1993, dated 2002).

Experiments:
[1] = target: T1, human prostaglandin I2 (IP) receptor (Homo sapiens, UniProt P43119); assay: [3H]iloprost competition binding to membranes of pcDNAIamp-hIP transfected COS-M6 cells; settings: for competition for [3H]iloprost specific binding to the hIP receptor: at a concentration of 30 μM; for IC50: read-out: IC50, competition for [3H]iloprost specific binding, 4 nM [3H]iloprost, COS-M6 membranes, pH 6.0, 45 min at 30° C.
T1 construct: A DNA molecule encoding the full length IP protein has been isolated and purified; expressed in transfected cells; host or cells: COS-M6 cells (membrane fraction), pcDNAIamp-hIP, DEAE-dextran transfection
T1 sequence (P43119 whole entry): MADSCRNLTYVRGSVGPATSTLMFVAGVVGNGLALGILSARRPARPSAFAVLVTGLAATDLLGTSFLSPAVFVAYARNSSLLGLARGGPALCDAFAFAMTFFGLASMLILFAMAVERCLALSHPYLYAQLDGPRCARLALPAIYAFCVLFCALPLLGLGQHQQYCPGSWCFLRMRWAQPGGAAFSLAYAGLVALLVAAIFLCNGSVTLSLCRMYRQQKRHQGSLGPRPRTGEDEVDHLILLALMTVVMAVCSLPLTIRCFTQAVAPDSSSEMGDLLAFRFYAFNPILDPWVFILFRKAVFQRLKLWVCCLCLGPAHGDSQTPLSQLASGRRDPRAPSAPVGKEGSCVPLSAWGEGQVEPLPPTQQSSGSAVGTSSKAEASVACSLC

[2] = tested on: endogenous IP receptors in oocytes; assay: Control oocytes injected with CFTR cDNA alone (voltage clamp); type: cell-based, Xenopus laevis; settings: 100 nM
Protocol: The broken line represents the zero current level.
(§1) The voltage-clamp experiments shown here were performed 48 hr after nuclear injection and are representative of 6 separate experiments with oocytes from 3 different frogs.
(§2) Oocytes were taken from adult females of Xenopus laevis using standard surgical procedure (Colman, A., 1984 In: Transcription and Translation—A Practical Approach, IRL Press). To remove follicle cells, oocytes were treated for 2-3 h with freshly made collagenase (2 mg/ml, type 2, Worthington Biochemical Corp., Freehold, N.J.) in Ca^2+-free ND96 solution (ND96 in mM: NaCl 96, KCl 2, MgCl2 1, HEPES 5, Na-pyruvate 2.5, theophylline 0.5, gentamicin […], +1.8 CaCl2, pH 7.6). Defolliculated stage 5-6 oocytes were selected and maintained in ND96 solution. Oocyte nuclei were injected with 1.6 ng of pcDNAlamp-IP plus 2.5 ng of pcDNAIamp-CFTR and then incubated at 18° C. for 48 h before challenge with agonist. CFTR (cystic fibrosis transmembrane regulator, a cAMP dependent Cl^− channel) was co-expressed with IP receptor in these oocytes and served as a reporter of changes in intracellular cAMP levels. Functional activity was determined by measurement of Iloprost-induced CFTR-mediated Cl^− current. An oocyte was placed in a 0.5 ml perfusion chamber and voltage clamped at −60 mV (with microelectrodes of 0.5-2.0 MW resistance filled with 3 M KCl) using a Turbo TEC 01C amplifier (NPl Instruments, Germany). Ligand-containing solution was perfused and the current response was recorded.
(§3) This rank order of potency is consistent with that reported for the IP receptor [Coleman, et al., 1990. Comprehensive Medicinal Chemistry (Hansch, C., Sammes, P. G., Taylor, J. B., and Emmett, J. C., Eds) Vol. 3, pp. 643-714, Pergamon, Press, Oxford].

IP receptor (hIP cDNA) = target: T2, IP receptor (hIP cDNA) (Homo sapiens, UniProt P43119); assay: CFTR-mediated Cl- current in Xenopus oocytes co-injected with pcDNAIamp-IP and pcDNAIamp-CFTR (voltage clamp); type: cell-based; settings: oocyte clamped at -60 mV, 48 h after injection
T2 construct: A DNA molecule encoding the full length IP protein has been isolated and purified; expressed in transfected cells; host or cells: Xenopus laevis oocytes, nuclear injection of pcDNAIamp-IP plus pcDNAIamp-CFTR
T2 sequence (P43119 whole entry): as above
Protocol: FIG. 5A and 5B —Expression of the prostaglandin 12 receptor in IP cDNA-injected Xenopus oocytes is shown.
as §1, §2, §3

Row | Structure (SMILES) | competition for [3H]iloprost specific binding to the hIP receptor [1] | current response in control (CFTR alone injected) oocytes [2] | CFTR-mediated Cl- current response (IP receptor (hIP cDNA); 100 nM) | IC50 [1] [µM] | CFTR-mediated Cl- current response (IP receptor (hIP cDNA); perfusion of 1-100 nM)
1 | CCCCC[C@H](O)/C=C/[C@H]1C(=O)C[C@H](O)[C@@H]1C/C=C\CCCC(=O)O [PGD2] | essentially inactive | no responses | not detectable |  | 
2 | CCCCC[C@H](O)/C=C/[C@H]1[C@H](O)CC(=O)[C@@H]1C/C=C\CCCC(=O)O [PGE2] |  | no responses | not detectable | ~10 | 
3 | CCCCC[C@H](O)/C=C/[C@@H]1[C@@H](C/C=C\CCCC(=O)O)[C@@H](O)C[C@H]1O [PGF2α] |  |  |  | ~10 | 
4 | CCCCC[C@H](O)/C=C/[C@@H]1[C@@H](C/C=C\CCCC(=O)O)[C@H]2CO[C@@H]1C2 [U46619] | essentially inactive |  |  |  | 
5 | CC#CCC(C)[C@H](O)/C=C/[C@@H]1[C@H]2C/C(=C/CCCC(=O)O)C[C@H]2C[C@H]1O (stereo partly shown) [iloprost] |  | no responses |  |  | prominent current responses
